Measurements as given in patent publication US20250270246A1, “LINCOSAMIDES AND USES THEREOF” (President and Fellows of Harvard College, priority 2022, published 2025).
Counter-ions that a name gives are not always drawn. Like-named read-outs stand apart in the source and are kept apart here.

Key:
Type in all cases: cell-based
[1] = tested on: S. aureus ATCC 29213 (HAV#001); assay: MIC by broth microdilution (CLSI); conditions: for MIC: Staphylococcus aureus, ATCC29213, 24 h, read-out: MIC S. aureus ATCC 29213
How it was run: (§1)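 CLSI broth microdilution in cation-adjusted Mueller-Hinton broth, inoculum 5×10^5 CFU/mL, compounds typically 64-0.06 μg/mL with 2.5% final DMSO. MIC is the lowest concentration preventing visible growth after 24 h. For P. aeruginosa, broth was pre-treated with Chelex 100 resin.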

S. aureus MMX 3035 = assay: MIC by broth microdilution (CLSI); conditions: for MIC: Staphylococcus aureus, MMX3035, 24 h, read-out: MIC S. aureus MMX 3035
How it was run: as §1

E. coli ΔtolC = assay: MIC by broth microdilution (CLSI); conditions: CaMHB, 24 h incubation; for MIC: Escherichia coli, 24 h, read-out: MIC E. coli ΔtolC, ΔtolC
How it was run: as §1

E. coli lptD mutant = assay: MIC by broth microdilution (CLSI); conditions: CaMHB, 24 h incubation; for MIC E. coli lptD mutant: lptD mutant / ΔlptD mutant, formate salt
How it was run: as §1

[2] = tested on: E. coli ATCC 25922 (HAV#006); assay: MIC by broth microdilution (CLSI); conditions: for MIC: Escherichia coli, ATCC25922, 24 h, read-out: MIC E. coli ATCC 25922
How it was run: as §1

E. faecium JMI-990536 = assay: MIC by broth microdilution (CLSI); conditions: Enterococcus faecium, JMI990536, 24 h, read-out: MIC E. faecium JMI-990536
How it was run: as §1

[3] = tested on: E. faecalis ATCC 29212 (HAV#005); assay: MIC by broth microdilution (CLSI); conditions: for MIC: Enterococcus faecalis, ATCC29212, 24 h, read-out: MIC E. faecalis ATCC 29212
How it was run: as §1

S. aureus Clinical (cfr) = assay: MIC by broth microdilution (CLSI); conditions: for MIC: Staphylococcus aureus, 24 h, read-out: MIC S. aureus Clinical (cfr)
How it was run: as §1

K. pneumoniae JMI-991193 = assay: MIC by broth microdilution (CLSI); conditions: for MIC: Klebsiella pneumoniae, JMI991193, 24 h, read-out: MIC K. pneumoniae JMI-991193
How it was run: as §1

E. coli Clinical (armA) = assay: MIC by broth microdilution (CLSI); conditions: for MIC: Escherichia coli, 24 h, read-out: MIC E. coli Clinical (armA)
How it was run: as §1

S. pneumoniae c-ermB = assay: MIC by broth microdilution (CLSI); conditions: Streptococcus pneumoniae, 24 h, read-out: MIC S. pneumoniae c-ermB
How it was run: as §1

[4] = tested on: A. baumannii ATCC 19606 (HAV#010); assay: MIC by broth microdilution (CLSI); conditions: Acinetobacter baumannii, ATCC19606, 24 h, read-out: MIC A. baumannii ATCC 19606
How it was run: as §1

H. influenzae ATCC 49247 = assay: MIC by broth microdilution (CLSI); conditions: Haemophilus influenzae, ATCC49247, 24 h, read-out: MIC H. influenzae ATCC 49247
How it was run: as §1

E. coli HAV#040, LptD = assay: MIC by broth microdilution (CLSI); conditions: Escherichia coli, 24 h, read-out: MIC E. coli HAV#040, LptD
How it was run: as §1

[5] = tested on: S. aureus HAV#202, ATCC 700699; assay: MIC by broth microdilution (CLSI); conditions: Staphylococcus aureus, ATCC700699, CaMHB, 24 h incubation
How it was run: as §1

[6] = tested on: E. faecium HAV#318, VRE; clinical; assay: MIC by broth microdilution (CLSI); conditions: Enterococcus faecium, CaMHB, 24 h incubation, read-out: MIC E. faecium HAV#318, VRE
How it was run: as §1

[7] = tested on: S. pneumoniae HAV#003, ATCC 49619; assay: MIC by broth microdilution (CLSI); conditions: Streptococcus pneumoniae, ATCC49619, CaMHB, 24 h incubation
How it was run: as §1

S. aureus HAV#016, MRSA = assay: MIC by broth microdilution (CLSI); conditions: Staphylococcus aureus, CaMHB, 24 h incubation
How it was run: as §1

[8] = tested on: S. pyogenes HAV#004, ATCC 19615; assay: MIC by broth microdilution (CLSI); conditions: Streptococcus pyogenes, ATCC19615, CaMHB, 24 h incubation
How it was run: as §1

[9] = tested on: K. oxytoca HAV#450; Clinical; assay: MIC by broth microdilution (CLSI); conditions: Klebsiella oxytoca, CaMHB, 24 h incubation, read-out: MIC K. oxytoca HAV#450
How it was run: as §1

E. coli HAV#038, ΔTolC = assay: MIC by broth microdilution (CLSI); conditions: Escherichia coli, 24 h, read-out: MIC E. coli HAV#038, ΔTolC
How it was run: as §1

[10] = tested on: P. aeruginosa ATCC 27853 (HAV#009); assay: MIC by broth microdilution (CLSI), Chelex 100-treated broth; conditions: HAV#009, ATCC 27853, CaMHB pre-treated with Chelex 100 ion exchange resin, 24 h
Method: Minimum inhibitory concentrations (MICs) were determined by the broth microdilution method following the Clinical and Laboratory Standards Institute (CLSI) guidelines. Test organisms consisted of standard reference strains from the American Type Culture Collection (ATCC; Manassa, VA, USA) and clinical isolates obtained from JMI Laboratories Inc. (North Liberty, IA, USA), Micromyx repository (MMX; Kalamazoo, MI, USA), and Massachusetts Eye and Ear Hospital (Boston, USA). Before the start of the MIC experiment, standard and test compound stock solutions were prepared in dimethyl sulfoxide (DMSO, Aldrich D2650) at a stock concentration of 2,560 μg/mL. The compound concentration range typically employed for each experiment was 64-0.06 μg/mL (2.5% final DMSO concentration). Iboxamycin was used as a comparator in all experiments. All bacterial strains were sub-cultured on blood agar plates (tryptic soy agar with 5% sheep blood, Hardy Diagnostics) and incubated overnight at 35° C. Organisms were suspended in cation-adjusted Mueller-Hinton broth (CaMHB, BD 212322) and optical density was adjusted to 0.5 McFarland standard. Suspensions were further diluted to obtain a final inoculum of 5×10^5 CFU/mL for broth microdilution experiments. The minimum concentration of compound required to inhibit visible bacterial growth after 24 h of incubation was recorded as the MIC in μg/mL. MICs for P. aeruginosa were recorded in cation-adjusted Mueller-Hinton broth which had been pre-treated with Chelex 100 ion exchange resin according to procedures reported in Ito et al. Antimicrob Agents Chemother (2016) 60 (12), 7396-7401.

[11] = HAV#001, ATCC 29213, CaMHB, 24 h incubation
[12] = HAV#006, ATCC 25922, CaMHB, 24 h incubation
[13] = MMX 3035, CaMHB, 24 h incubation
[14] = Clinical (cfr), CaMHB, 24 h incubation
[15] = JMI-991193, CaMHB, 24 h incubation

Row | Compound | MIC (E. coli ΔtolC) [µg/mL] | MIC (E. coli HAV#040, LptD) [µg/mL] | MIC [1, 11] [µg/mL] | MIC [5] [µg/mL] | MIC [6] [µg/mL] | MIC [7] [µg/mL] | MIC (S. aureus HAV#016, MRSA) [µg/mL] | MIC [8] [µg/mL] | MIC [2, 12] [µg/mL] | MIC [9] [µg/mL] | MIC (E. coli HAV#038, ΔTolC) [µg/mL] | MIC E. coli lptD mutant (E. coli lptD mutant) [µg/mL] | other results
1 | CC(C)C[C@@H]1CCO[C@@H]2[C@H](CN[C@@H]2C(=O)N[C@H]2[C@H]3O[C@H](SC[C@H](F)C/C=C\[C@H]2C)[C@H](O)[C@@H](O)[C@H]3O)C1 [FSA1609033, (4S,5aS,8S,8aR)—N-((1R,4R,8R,9R,10R,11R,12S,13R,Z)-4-fluoro-11,12,13-trihydroxy-8-methyl-14-oxa-2-thiabicyclo[8.3.1]tetradec-6-en-9-yl)-4-isobutyloctahydro-2H-oxepino[2,3-c]pyrrole-8-carboxamide formate salt] | ≤ 0.06 | – | – | – | – | – | – | – | – | – | – | – | MIC [1]: ≤ 0.06 µg/mL; MIC (S. aureus MMX 3035): 0.25 µg/mL; MIC (E. coli lptD mutant; Escherichia coli, 24 h, read-out: MIC E. coli lptD mutant, lptD mutant / ΔlptD mutant): 0.125 µg/mL; MIC [2]: 1 µg/mL; MIC (E. faecium JMI-990536): ≤ 0.06 µg/mL; MIC [3]: ≤ 0.06 µg/mL; MIC (S. aureus Clinical (cfr)): 0.25 µg/mL; MIC (K. pneumoniae JMI-991193): 2 µg/mL; MIC (E. coli Clinical (armA)): 4 µg/mL; MIC (S. pneumoniae c-ermB): ≤ 0.03 µg/mL; MIC [4]: 1 µg/mL; MIC (H. influenzae ATCC 49247): ≤ 0.06 µg/mL
2 | CC(C)C[C@@H]1CCO[C@@H]2[C@H](CN[C@@H]2C(=O)N[C@@H]2CCCCCS[C@H]3O[C@H]2[C@H](O)[C@H](O)[C@H]3O)C1 [FSA1503058, (4S,5aS,8S,8aR)-4-isobutyl-N-((1R,8R,9R,10R,11S,12R)-10,11,12-trihydroxy-13-oxa-2-thiabicyclo[7.3.1]tridecan-8-yl) octahydro-2H-oxepino[2,3-c]pyrrole-8-carboxamide formate salt] | – | 4 | 0.125 | 4 | 2 | ≤ 0.03 | 0.125 | ≤ 0.03 | 16 | 32 | 1 | – | –
3 | CC(C)C[C@@H]1CCO[C@@H]2[C@H](CN[C@@H]2C(=O)N[C@@H]2CC/C=C\CSC3OC2C(O)C(O)C3O)C1 (stereo partly drawn) [FSA1503055, (4S,5aS,8S,8aR)-4-isobutyl-N-((1R,8R,9R,10R,11S,12R,Z)-10,11,12-trihydroxy-13-oxa-2-thiabicyclo[7.3.1]tridec-4-en-8-yl) octahydro-2H-oxepino[2,3-c]pyrrole-8-carboxamide formate salt] | – | 64 | 0.5 | 32 | 4 | 0.25 | 0.5 | 0.125 | > 64 | > 64 | 16 | – | –
4 | CC(C)C[C@@H]1CCO[C@@H]2[C@H](CN[C@@H]2C(=O)N[C@@H]2C/C=C/C(CN3CCOCC3)CSC3OC2C(O)C(O)C3O)C1 (single isomer, unassigned) [FSA1608057, formate salt] | 16 | – | 4 | – | – | – | – | – | > 64 | – | – | 32 | MIC ([10]; Pseudomonas aeruginosa, ATCC27853): 32 µg/mL; MIC (S. aureus MMX 3035; [13]): > 64 µg/mL; MIC ([3]; HAV#005, ATCC 29212, CaMHB, 24 h incubation): 2 µg/mL; MIC (S. aureus Clinical (cfr); [14]): > 64 µg/mL; MIC (K. pneumoniae JMI-991193; [15]): > 64 µg/mL; MIC (E. coli Clinical (armA); Clinical (armA), CaMHB, 24 h incubation): > 64 µg/mL
5 | CC(C)C[C@@H]1CCO[C@@H]2[C@H](CN[C@@H]2C(=O)N[C@@H]2CC/C=C/CS[C@H]3O[C@H]2[C@H](O)[C@H](O)[C@H]3O)C1 [FSA1503054, (4S,5aS,8S,8aR)-4-isobutyl-N-((1R,8R,9R,10R,11S,12R,E)-10,11,12-trihydroxy-13-oxa-2-thiabicyclo[7.3.1]tridec-4-en-8-yl) octahydro-2H-oxepino[2,3-c]pyrrole-8-carboxamide formate salt] | – | 4 | 0.125 | 8 | 16 | ≤ 0.03 | 0.125 | ≤ 0.03 | 16 | 32 | 1 | – | –
6 | CC(C)C[C@@H]1CCO[C@@H]2[C@H](CN[C@@H]2C(=O)N[C@@H]2C/C=C/C(CN3CCOCC3)CSC3OC2C(O)C(O)C3O)C1 (single isomer, unassigned) [FSA1608056, formate salt] | – | – | – | – | – | – | – | – | – | – | – | 4 | MIC P. aeruginosa ATCC 27853 [10]: 32 µg/mL; MIC S. aureus ATCC 29213 [1, 11]: 4 µg/mL; MIC S. aureus MMX 3035 (S. aureus MMX 3035; [13]): >64 µg/mL; MIC E. coli ΔtolC (E. coli ΔtolC; ΔtolC): 16 µg/mL; MIC E. coli ATCC 25922 ([2]; HAV#006, ATCC 25922, CaMHB, 24 h incubation, formate salt): 64 µg/mL; MIC E. faecalis ATCC 29212 ([3]; HAV#005, ATCC 29212, CaMHB, 24 h incubation, formate salt): 4 µg/mL; MIC S. aureus Clinical (cfr) (S. aureus Clinical (cfr); [14]): >64 µg/mL; MIC K. pneumoniae JMI-991193 (K. pneumoniae JMI-991193; [15]): >64 µg/mL; MIC E. coli Clinical (armA) (E. coli Clinical (armA); Clinical (armA), CaMHB, 24 h incubation, formate salt): 64 µg/mL
